Measured values reported in patent US20260144805A1, “CANNABIDIOL COMPOSITIONS FOR USE IN THE TREATMENT OF NEURODEGENERATIVE AND NEUROLOGICAL DISORDERS” (JAZZ PHARMACEUTICALS RESEARCH UK LIMITED, priority 2022, published 2026).

Tests used:
[1] = test system: rTg4510 mice; assay: Open Field (OF) test, locomotor activity in rTg4510 mouse model of Alzheimer's Disease (Example 2; DS = DS-C); type: in vivo; settings: for Locomotor activity totals, Mean / Locomotor activity totals, % vs Wild-type / Locomotor activity totals, % vs rTg4510: Doxycycline 200 ppm diet
Protocol: The aim of this study was to evaluate the efficacy of the present drug substance to modulate the agitation-like behaviours in the rTg4510 regulatable mouse model of Alzheimer's Disease (AD). Animals were tested in a behavioural assay, the Open Field (OF) test to measure locomotor activity (LMA). Activity was first assessed at a 21-week-old baseline to determine whether a hyperactive phenotype (to be used as a proxy for agitation) had developed and was further assessed at 2 subsequent ages in acute and chronic efficacy phases.
Ninety male rTg4510 (CC) mice and 15 wild-type (WW) (Tg(Camk2a-tTA)1Mmay Fgf14^Tg(tetO-MAPT*P301L)4510Kha/J, Jax strain #024854, licensed from the Mayo Clinic, USA) were split into 2 cohorts, 4 weeks apart in age; cohort 1 contained 53 mice (8 WW and 45 CC) and cohort 2 contained 52 mice (7 WW and 45 CC). Relative humidity was 55±15% throughout. Mice were housed in individually ventilated cages on a 12 h/12 h light/dark cycle (lights on at 07.00 h; illumination by red light during the dark phase), at an ambient temperature of 24±4° C. with free access to standard rodent maintenance diet and filtered water. Animals were allowed to acclimatise to the above conditions for 7-10 days prior to the study start. All housing groupings were preserved until the mice were approximately 5 months old, at which point they were singly housed.
Doxycycline administration: a subset of animals in cohort 2 (n=15) was administered 2× daily oral bolus doses of doxycycline hyclate (10 mg/kg p.o. in 5% glucose, Sigma Aldrich) at 13 weeks of age, followed by continuous exposure to normal lab chow containing 200 ppm doxycycline (Envigo Teklad 2018 TD.00502 no colourants, irradiated and vacuum-packed). All other animals received Envigo Teklad 2018 diet. All diet was provided ad libitum.
Following this regime, animals were evaluated in Open Field (OF) test, before being deeply anaesthetised at the end of the behavioural testing prior to biofluid sampling and tissue harvesting.
Specifically, the material was solubilised by the addition of 50 μL of 10% glacial acetic acid and making up to volume with 0.9% saline (Aquapharm, Animal Care, York, UK, Lot 21030311).
Drug Substance (DS): (i.e., DS-C, See Table B in Example 1) Dosing volume was 10 mL/kg and DS was formulated at the 150 mg/kg dose in a vehicle of ethanol: Kolliphor HS15: 0.9% saline (1:12:87, w/w/v) which were stored at room temperature and added at approximately 60° C. to form solutions which were subsequently stable at room temperature. All dosing formulations were protected from light whenever possible. Dosing solutions were made fresh on the day of dosing, with lower dose formulations being prepared by dilution from the 150 mg/kg dosing solution at room temperature.
Locomotor activity was assessed by OF test in the light phase of the light-dark cycle at weeks 21, 26 and 31. An automated beam break apparatus (40 cages) was used for the assessment of locomotor activity in rats and mice. Each cage had 4 beams; 1 ‘y’ and 3 ‘x’ which triggered a signal through capacitors when the beam was broken. Signals were collected by data loggers and processed accordingly. All animals were placed in the apparatus and spontaneous activity was assessed for a four-hour period between 0900 and 1300. Animals were then removed from the apparatus and returned to their home cages. LMA assessment was split over 2 consecutive days at each time point.
For locomotor data, a log (x+1) transformation was used. For weeks 21 & 26, means and SEMs were calculated from the transformed data. Analysis was by Friedman's two-way nonparametric ANOVA with treatment and test day as factors to compare each group to the WW animals, and (where appropriate) Doxycycline with the untreated rTg4510 group. For week 30, data excluding the WW and Doxycycline groups for each time period were analysed by robust regression model using M estimation, Huber weighting, using the default parameter c=1.345. […]

[2] = Brain weight of rTg4510 mice (Example 2); type: in vivo, mouse; settings: rTg4510 CC mice administered doxycycline; end of study
Protocol: Brain Tissue Collection: Mice were decapitated and the brains rapidly extracted. Brains were briefly washed in saline and blot dried then hemisected, weighed separately and frozen on dry ice before storage at approximately −80° C.
Brain weights were analysed by 2-way analysis of variance with treatment and cohort as factors.

[3] = Weekly body weight of rTg4510 mice (Example 2); type: in vivo, mouse; settings: rTg4510 mice fed doxycycline; 15 weeks of age
Protocol: Weekly bodyweight: all animals were weighed weekly until the end of the study.
Weekly body weight data were analysed by mixed linear model with the cohort by week and group by week interactions as fixed effects, animal as the random subject, using an AR (1)+RE correlation structure. Comparisons to the WW and rTg4510 (vehicle) groups for the same week were by the multiple t test.

[4] = Week 31, 0-240 minute period, doxycycline-treated group

Compound: C[C@H]1c2cccc(O)c2C(=O)C2=C(O)[C@]3(O)C(=O)C(C(N)=O)=C(O)[C@@H](N(C)C)[C@@H]3[C@@H](O)[C@@H]21 [Doxycycline, doxycycline hyclate]
- Locomotor activity totals, Mean ([1]; Week 21, 0-30 minutes): 855.0
- Locomotor activity totals, Mean ([1]; Week 21, 0-60 minutes): 1624.9
- Locomotor activity totals, Mean ([1]; Week 21, 0-240 minutes): 3476.4
- Locomotor activity totals, Mean ([1]; Week 21, 30-60 minutes): 749.9
- Locomotor activity totals, Mean ([1]; Week 21, 60-90 minutes): 542.2
- Locomotor activity totals, Mean ([1]; Week 21, 60-120 minutes): 880.1
- Locomotor activity totals, Mean ([1]; Week 21, 90-120 minutes): 283.2
- Locomotor activity totals, Mean ([1]; Week 21, 120-150 minutes): 227.4
- Locomotor activity totals, Mean ([1]; Week 21, 120-180 minutes): 521.1
- Locomotor activity totals, Mean ([1]; Week 21, 150-180 minutes): 181.8
- Locomotor activity totals, Mean ([1]; Week 21, 180-210 minutes): 71.1
- Locomotor activity totals, Mean ([1]; Week 21, 180-240 minutes): 212.8
- Locomotor activity totals, Mean ([1]; Week 21, 210-240 minutes): 52.4
- Locomotor activity totals, Mean ([1]; Week 26, 0-30 minutes): 903.7
- Locomotor activity totals, Mean ([1]; Week 26, 0-60 minutes): 1606.6
- Locomotor activity totals, Mean ([1]; Week 26, 0-240 minutes): 3435.5
- Locomotor activity totals, Mean ([1]; Week 26, 30-60 minutes): 664.6
- Locomotor activity totals, Mean ([1]; Week 26, 60-90 minutes): 489.8
- Locomotor activity totals, Mean ([1]; Week 26, 60-120 minutes): 770.3
- Locomotor activity totals, Mean ([1]; Week 26, 90-120 minutes): 186.7
- Locomotor activity totals, Mean ([1]; Week 26, 120-150 minutes): 157.0
- Locomotor activity totals, Mean ([1]; Week 26, 120-180 minutes): 459.9
- Locomotor activity totals, Mean ([1]; Week 26, 150-180 minutes): 142.2
- Locomotor activity totals, Mean ([1]; Week 26, 180-210 minutes): 185.3
- Locomotor activity totals, Mean ([1]; Week 26, 180-240 minutes): 362.6
- Locomotor activity totals, Mean ([1]; Week 26, 210-240 minutes): 41.3
- Locomotor activity totals, % vs Wild-type ([1]; Week 31, 0-30 minutes): 143.2%
- Locomotor activity totals, % vs rTg4510 ([1]; Week 31, 0-30 minutes): 58.7%
- Locomotor activity totals, Mean ([1]; Week 31, 0-30 minutes): 744.04
- Locomotor activity totals, % vs Wild-type ([1]; Week 31, 0-60 minutes): 144.7%
- Locomotor activity totals, % vs rTg4510 ([1]; Week 31, 0-60 minutes): 47.6%
- Locomotor activity totals, Mean ([1]; Week 31, 0-60 minutes): 1216.28
- activity as % of the activity seen in the WW animals [1, 4]: 100.6%
- activity as % of the activity seen in the rTg4510(vehicle) animals [1, 4]: 26.2%
- Locomotor activity totals, % vs Wild-type ([1]; Week 31, 30-60 minutes): 141.7%
- Locomotor activity totals, % vs rTg4510 ([1]; Week 31, 30-60 minutes): 35.3%
- Locomotor activity totals, Mean ([1]; Week 31, 30-60 minutes): 445.74
- Locomotor activity totals, % vs Wild-type ([1]; Week 31, 60-90 minutes): 153.3%
- Locomotor activity totals, % vs rTg4510 ([1]; Week 31, 60-90 minutes): 37.0%
- Locomotor activity totals, Mean ([1]; Week 31, 60-90 minutes): 231.53
- Locomotor activity totals, % vs Wild-type ([1]; Week 31, 60-120 minutes): 176.8%
- Locomotor activity totals, % vs rTg4510 ([1]; Week 31, 60-120 minutes): 49.4%
- Locomotor activity totals, Mean ([1]; Week 31, 60-120 minutes): 477.89
- Locomotor activity totals, % vs Wild-type ([1]; Week 31, 90-120 minutes): 324.4%
- Locomotor activity totals, % vs rTg4510 ([1]; Week 31, 90-120 minutes): 110.8%
- Locomotor activity totals, Mean ([1]; Week 31, 90-120 minutes): 165.38
- Locomotor activity totals, % vs Wild-type ([1]; Week 31, 120-150 minutes): 134.8%
- Locomotor activity totals, % vs rTg4510 ([1]; Week 31, 120-150 minutes): 63.1%
- Locomotor activity totals, Mean ([1]; Week 31, 120-150 minutes): 105.17
- Locomotor activity totals, % vs Wild-type ([1]; Week 31, 150-180 minutes): 135.0%
- Locomotor activity totals, % vs rTg4510 ([1]; Week 31, 150-180 minutes): 33.9%
- Locomotor activity totals, Mean ([1]; Week 31, 150-180 minutes): 28.13
- Locomotor activity totals, % vs Wild-type ([1]; Week 31, 180-210 minutes): 8.9%
- Locomotor activity totals, % vs rTg4510 ([1]; Week 31, 180-210 minutes): 5.6%
- Locomotor activity totals, Mean ([1]; Week 31, 180-210 minutes): 1.72
- Locomotor activity totals, % vs Wild-type ([1]; Week 31, 210-240 minutes): 90.8%
- Locomotor activity totals, % vs rTg4510 ([1]; Week 31, 210-240 minutes): 117.5%
- Locomotor activity totals, Mean ([1]; Week 31, 210-240 minutes): 16.18
- mean brain weight [2]: 408.8 ± 6.1 mg
- body weight [3]: 29.14 ± 0.50 g
